Data as given in article PMC9095593, “On Methods for the Measurement of the Apelin Receptor Ligand Apelin” (Scientific Reports, 2022).
Where two headings read alike, the source gives them in different places. Where no end group is shown, it is not given here.

Tests used:
[1] = cited from earlier work
From the text: However, acidification can be appl ...

[2] = Influence of cooling on ice and P100 protease inhibitor cocktail on peptide stability; details: HPLC-MS/MS, measured in triple; for Influence of the P100 tube (protease inhibitor cocktail) on stability: P100 vs K2EDTA, immediately, 30 and 60 min on ice or at room temperature; for Effect of cooling with ice on stability: spiked on K2EDTA and P100 plasma, measured immediately and after 30 and 60 min on ice or at room temperature
Description: The samples were measured immediately, and after 30 and 60 min on ice or at room temperature (Fig. 6). All samples were measured in triple.
The samples were measured immediately, or after 30 and 60 min on ice or at room temperature.

[3] = test system: Furin (PCSK3); details: cited from earlier work
From the text: (§1) Table 1 Enzymatic processing of apelin. | column: Conversion

[4] = test system: Prolyl carboxypeptidase; details: cited from earlier work
From the text: as §1

[5] = Stability of spiked synthetic peptides in plasma according to the preanalytical condition (immediately vs 60 min at room temperature); details: HPLC-MS/MS; for Degradation after one hour at room temperature: spiked synthetic peptide; for Degradation at the immediate measurement in non-acidified conditions: non-acidified plasma, measured immediately after spiking; for Appearance of apelin-pyr-13 after spiking synthetic apelin-13: after 60 min
From the text: We aimed to minimalize degradation after sampling with a preanalytical protocol summarized in Fig. 3, including immediate cooling and rapid processing of samples. […] However, acidification can be applied only after separation by centrifugation of whole blood into a plasma and a cell compartment, because acidification of whole blood would lead to hemolysis and coagulation, rendering the blood samples unsuitable for further measurements. Therefore, we used protease inhibitor cocktail-containing K2EDTA-coated P100 blood tubes and a mechanical plasma separator (366422 BD Biosciences, San Jose, CA, USA)[19]. The aim of the protease inhibitor cocktail is to inactivate proteolytic degradation by enzymes present in whole blood; the mechanical separator prevent contact with cell-bound enzymes, both theoretically limiting enzymatic degradation of apelin during the several minutes between blood collection in the tube and completed plasma separation and acidification.
Figure 3 Overview of preanalytical conditions. Samples were immediately cooled on ice and processed within 1 h. Both standard K2EDTA tubes and P100 prechilled tubes containing a protease inhibitor cocktail and mechanical separator were used. The standard K2EDTA was centrifuged for 10 min 1300 × g at 4 °C, while the P100 tube was centrifuged for 20 min 2500 × g at 4 °C, according to the manufacturers’ instructions. After separation, plasma was untreated or acidified to either pH 2.5 or 4.5 by adding the plasma to low protein-binding tubes pre-filled with either phosphoric acid or formic acid. The plasma samples were stored directly at − 20 °C and transferred within 4 h at − 80 °C.
Spiking of individual peptides was performed on plasma collected in K2EDTA tubes, stored either non-acidified, or acidified to pH 4.5 or pH 2.5 and on plasma collected in P100 tubes, stored either non-acidified, or acidified to pH 4.5 and pH 2.5. The samples were measured both immediately and after 60 min at room temperature, each sample was measured 3 times.

[6] = test system: G-protein-coupled apelin receptor (AR); set-up: method as in PMID 23872001, PMID 18272843, PMID 29357134; details: cited from earlier work
From the text: Apelin is expressed as a 77–amino acid precursor, and the C-terminal 17 residues are completely conserved in mammalians. Enzymatic processing (overviewed in Table 1) results in several active C-terminal fragments named apelin-n, specifying that a given isoform has “n” amino acids, all sharing the same 12 C-terminal residues that contain the receptor-binding site (Fig. 1).

[7] = test system: Kallikrein; details: cited from earlier work
From the text: as §1

[8] = previously described plasma acidification step to pH 4.5
[9] = K2EDTA plasma acidified to pH 2.5, immediately and after 60 min at room temperature, measured 3 times
[10] = K2EDTA plasma acidified to pH 4.5, immediately and after 60 min at room temperature, measured 3 times
[11] = K2EDTA plasma, non-acidified, measured immediately and after 60 min at room temperature, each sample measured 3 times
[12] = P100 (protease inhibitor cocktail) plasma, non-acidified, immediately and after 60 min at room temperature, measured 3 times
[13] = P100 plasma acidified to pH 2.5, immediately and after 60 min at room temperature, measured 3 times
[14] = P100 plasma acidified to pH 4.5, immediately and after 60 min at room temperature, measured 3 times

| Compound | Stability in plasma acidified to pH 4.5 [1, 8] | Influence of the P100 tube (protease inhibitor cocktail) on stability [2] | Effect of cooling with ice on stability [2] | Degradation after one hour at room temperature [5, 9] | Degradation after one hour at room temperature [5, 10] | Degradation after one hour at room temperature [5, 11] | Degradation after one hour at room temperature [5, 12] | Degradation after one hour at room temperature [5, 13] | Degradation after one hour at room temperature [5, 14] | Degradation at the immediate measurement in non-acidified conditions [5] | further results |
| --- | --- | --- | --- | --- | --- | --- | --- | --- | --- | --- | --- |
| Apelin-36: synthetic apelin isoform of 36 amino acids, purchased from CPC Scientific / Phoenix Pharmaceuticals (LVQPRGSRNGPGPWQGGRRKFRRQRPRLSHKGPMPF; Apelin-36; UniProt Q9ULZ1 42-77, looked up) | provide stability | negative influence | cooling with ice increases stability | limited degradation | limited degradation | limited degradation | higher degradation | limited degradation | higher degradation | – | Conversion by furin (PCSK3) [3]: directly to apelin 13; Cleavage by prolyl carboxypeptidase ([4]; similar to ACE-2 effect): Cleaves apelin 36, 17 and pyr-apelin 13; Activation of the apelin receptor (AR) [6]: can activate the AR |
| CSCC[C@H](NC(=O)[C@@H]1CCCN1C(=O)CNC(=O)[C@H](CCCCN)NC(=O)[C@H](Cc1cnc[nH]1)NC(=O)[C@H](CO)NC(=O)[C@H](CC(C)C)NC(=O)[C@H](CCCNC(=N)N)NC(=O)[C@@H]1CCCN1C(=O)[C@H](CCCNC(=N)N)NC(=O)[C@H](CCC(N)=O)NC(=O)[C@H](CCCNC(=N)N)NC(=O)[C@H](CCCNC(=N)N)NC(=O)[C@H](Cc1ccccc1)NC(=O)[C@@H](N)CCCCN)C(=O)N1CCC[C@H]1C(=O)N[C@@H](Cc1ccccc1)C(=O)O [Apelin-17] | – | – | – | – | – | – | – | – | – | – | Stability in plasma acidified to pH 4.5 ([1]; pH 4.5): provide stability; Cleavage by kallikrein [7]: Cleaves the 3N-terminal amino acids of apelin-17; Cleavage by prolyl carboxypeptidase [4]: Cleaves apelin 36, 17 and pyr-apelin 13; Degradation after one hour at room temperature (pH 2.5): minor degradation; Degradation after one hour at room temperature (pH 4.5): minor degradation |
| CSCC[C@H](NC(=O)[C@@H]1CCCN1C(=O)CNC(=O)[C@H](CCCCN)NC(=O)[C@H](Cc1c[nH]cn1)NC(=O)[C@H](CO)NC(=O)[C@H](CC(C)C)NC(=O)[C@H](CCCNC(=N)N)NC(=O)[C@@H]1CCCN1C(=O)[C@@H](N)CCCNC(=N)N)C(=O)N1CCC[C@H]1C(=O)N[C@@H](Cc1ccccc1)C(=O)O [Apelin-12] | – | – | cooling with ice increases stability | – | – | – | – | – | – | immediate degradation | Storage pH giving the best stability in plasma ([5]; plasma non-acidified, pH 4.5 or pH 2.5, 60 min at room temperature): most stable at pH 2.5 |
| NGPGPWQGGRRKFRRQRPRLSHKGPMPF [Apelin-28] | – | – | – | – | – | – | – | – | – | – | Influence of pH on stability in K2EDTA plasma ([5]; K2EDTA plasma non-acidified vs pH 4.5 vs pH 2.5, 60 min at room temperature): slightly better stability in K2EDTA plasma at pH 4.5 and pH 2.5 than in non-acidified plasma |
| CSCC[C@H](NC(=O)[C@@H]1CCCN1C(=O)CNC(=O)[C@H](CCCCN)NC(=O)[C@H](Cc1cnc[nH]1)NC(=O)[C@H](CO)NC(=O)[C@H](CC(C)C)NC(=O)[C@H](CCCNC(=N)N)NC(=O)[C@@H]1CCCN1C(=O)[C@H](CCCNC(=N)N)NC(=O)[C@@H](N)CCC(N)=O)C(=O)N1CCC[C@H]1C(=O)N[C@@H](Cc1ccccc1)C(=O)O [Apelin-13] | provide stability | small added value | cooling with ice increases stability | minor degradation | minor degradation | rapid degradation | rapid degradation | minor degradation | minor degradation | immediate degradation | Appearance of apelin-pyr-13 after spiking synthetic apelin-13 ([5]; K2EDTA plasma non-acidified): minimal; Appearance of apelin-pyr-13 after spiking synthetic apelin-13 ([5]; K2EDTA plasma pH 2.5): ~25%; Appearance of apelin-pyr-13 after spiking synthetic apelin-13 ([5]; K2EDTA plasma pH 4.5): ~3 × |
